Data published in US20170369414A1, “O-Quinone Compounds as Agents Neutralising Nitric Oxide” (Institut des Substances Végétales, priority 2015, published 2017).

Assay: Method for evaluating the neutralization of nitric oxide (amperometric probe, real time)
Conditions: phosphate buffer pH 7.4, 25° C., between T1 and T2=T1+30 s, corrected for solvent control
Experimental: For this, the nitric oxide is prepared in a separated container by achieving reduction of sodium nitrite with ferrous sulfate and carry away with a nitrogen gas stream into another container containing the product to be tested in solution in a buffer. In this solution, is placed an amperometric probe which measures in real time the current produced by the presence of nitric oxide in solution.
Nitric oxide is prepared extemporaneously in a container A, obturated with a flexible polymeric plug through which pass an entering tubing and an exiting tubing, with an inner diameter comprised between 50 μm and 300 μm, but particularly of 100 μm (cf. FIG. 1), with a volume comprised between 10 ml and 100 ml, but particularly of 30 ml, by adding a volume comprised between 0.1 and 2 ml, but particularly of 0.5 ml of an aqueous solution of sodium nitrite (NaNO2, ref. Sigma-Aldrich 237213) at a concentration comprised between 0.10% and 2.00% but particularly of 0.70%, at a volume comprised between 5 ml and 80 ml of the following aqueous solution:
The container B in which is measured the nitric oxide is a container opaque to light, with a double jacket allowing circulation of water maintaining the temperature at 25° C., obturated with a plug through which pass the tubing stemming from the container A and an exhaust tubing (cf. FIG. 1) with a volume comprised between 10 ml and 100 ml, preferably 30 ml which receives a volume comprised between 5 ml and 80 ml, preferably 20 ml, of an aqueous solution of phosphate buffer at pH 7.4.
Once they are mixed, the solutions are stirred for the whole period of the measurement with a magnetic stirrer, in container A and in container B.
Nitrogen gas is admitted at a flow rate comprised between 20 ml/min and 120 ml/min, preferably 80 ml/min in the bottom of the container A. The nitrogen thereby carries away the nitric oxide through the exiting tubing of container A as far as into container B where it is measured with a device provided for this purpose equipped with an amperometric probe provided with a specific membrane (apparatus of ref. TBR 1025 from World Precision Instruments, probe ISO-NOP). The probe thereby delivers a variable current between 10 and 1,000 nA proportional to the concentration of nitric oxide in the tested solution, of the order of magnitude of μM. The electric current produced by the probe under the influence of nitric oxide is recorded with a suitable device.
Before any measurement, the probe is calibrated by measuring the current produced by releasing known increasing amounts of nitric oxide. It is thus checked that there exists a linear relationship between the electric current produced by the probe and the molar concentration of nitric oxide and the correspondence between this electric current and the molar concentration of nitric oxide is determined. For this, 20 ml of the following aqueous solution is placed in the container B disconnected from the container A during the calibration period:
50 μl, 100 μl, 150 μl and 200 μl of a solution of sodium nitrite (NaNO2, ref. Sigma-Aldrich 237213) are then successively added to a concentration of 360 μM.
The curve giving the correspondence between the nitric oxide concentration in the reaction medium and the electric intensity produced by the probe expressed in nA is plotted for each addition of the nitric oxide solution.
During a typical measurement, 20 ml of the ferrous sulfate solution are placed in the container A and 20 ml of phosphate buffer at pH 7.4 are placed in the container B. In the container A, nitrogen gas is admitted for 10 mins, which passes in transit towards the container B, in order to remove the dissolved oxygen present in the solutions of the containers A and B. After these 10 mins, the recording of the measurement of nitric oxide is launched.
At time T0, the sodium nitrite solution is injected into the container A through the flexible polymeric plug by means of a syringe equipped with a needle.

Molecule | E, neutralization effect of nitric oxide (nitric oxide neutralized per second and per mg of product) [µM/s/mg]
O.O.O=c1c(O)c(-c2ccc(O)c(O)c2)oc2cc(O)cc(O)c12 [Quercetin, Quercetin dihydrate] | 0.087
C[C@@H]1O[C@@H](O[C@@H]2[C@@H](O)[C@H](OCCc3ccc(O)c(O)c3)O[C@H](CO)[C@H]2OC(=O)/C=C/c2ccc(O)c(O)c2)[C@H](O)[C@H](O)[C@H]1O [Verbascoside] | 0.058
O=C(O)/C=C/c1ccc(O)cc1 [p-coumaric acid] | 0.13
O=C(O)/C=C\C1=CC(=O)C(=O)C=C1 [caffeoyl-quinone, ortho-quinone of caffeic acid] | 24.36
O=c1cc(-c2ccc(O)c(O)c2)oc2cc(O)cc(O)c12 [Luteolin] | 0.174
O=C(O)/C=C/c1ccc(O)c(O)c1 [Caffeic acid] | 0.957
O=C(/C=C/c1ccc(O)c(O)c1)O[C@H](Cc1ccc(O)c(O)c1)C(=O)O [Rosmarinic acid] | 0.043
(+) catechin hydrate | 0.13
